Laboratory results as given in patent US12485102B2, “Methods and compositions for treating cancer” (The Wistar Institute of Anatomy and Biology, priority 2017, dated 2025).

Assays:
[1] = tested on: CD8+ T cells from OT-1 mice; experiment: Phenotype, gene expression, fatty acid uptake and effector functions of drug-treated OT-1 CD8+ T cells in vitro
Source text: We initially tested stimulation of OT-1 T cells by the polyclonal activators anti-CD3 and anti-CD28 or by their cognate peptide [sequence] and IL-2.

[2] = tested on: CD8+ T cells from OT-1 mice; experiment: Cell recovery and blast formation of in vitro stimulated, drug-treated OT-1 CD8+ T cells; type: cell-based
B16OVA tumor cells = experiment: Adoptive transfer of drug-pre-treated OT-1 cells into B16OVA tumor-bearing mice: tumor progression; settings: cells treated with 100 μM of FFA, last 2 days; n=5/group
Protocol: The cells were then treated for 2 days with 50 μM fenofibric acid or DMSO. Cells were injected i.v. into C57B1/6 recipient mice that had been injected 5 days earlier with B16OVA tumor cells. Tumor sizes were monitored. Tumor weights were measured at necropsy.
Mice were injected with 10^5 B16.F10 melanoma cells that were transduced to express the immunodominant epitope of ovalbumin [sequence]
Tumor growth in the mouse models was monitored for up to 24 days.
To assess how metabolic reprogramming affects tumor antigen-specific CD8+ T cells within a TME, mice were challenged with B16OVA tumor cells. […] Tumor progression was monitored and once tumors became large, splenocytes and tumor-infiltrating cells were isolated and characterized.
In another experiment, we treated cells with 100 μM of FFA (or as a control DMSO) for the last 2 days of culture. […] We analyzed tumor weights and splenocytes and tumor infiltrating lymphocytes (TILs) at necropsy for recovery, phenotypes, and functions of the donor OT-1 cells.

[3] = tested on: CD8+ T cells from OT-1 mice; experiment: Seahorse oxygen consumption rates (OXPHOS) of drug-treated OT-1 CD8+ T cells; type: cell-based; settings: 10 or 100 μM, last 2 days of culture; FIG. 10
Protocol: They were then analyzed for oxygen consumption rates (OCR) by Seahorse (left graph). In addition, after culture all live cells, CD8+ cells and activated CD44+CD8+ cells were counted to assess potential toxicity.
Seahorse experiments were conducted to further characterize the effects of FF on CD8+ T cell metabolism.
Cells were treated with 10 or 100 μM of FFA or FFP for the last 2 days of culture. […] See, FIG. 9. Both drugs increased OXPHOS as shown by increased oxygen consumption rates.

**Q.** Which “T cell proliferation in response to IL-2” value ([1]; FF-treated cells) does the source give for CC(C)OC(=O)C(C)(C)Oc1ccc(C(=O)c2ccc(Cl)cc2)cc1 [FF, fenofibrate] here?
**A.** Its value is “no effect”.

**Q.** With CC(C)(Oc1ccc(C(=O)c2ccc(Cl)cc2)cc1)C(=O)O [FFA, fenofibric acid] as the compound, how does the “toxicity in the in vitro or ex vivo pretreatment of the T cells” value ([2]; compared with fenofibrate, FIG. 8) read?
**A.** The value was “reduced toxicity”.

**Q.** And the “mice that developed progressing tumors” value (B16OVA tumor cells)?
**A.** Its value is 2 mice.

**Q.** What about the “mice with only small tumors that failed to grow” value (B16OVA tumor cells) of the same compound?
**A.** Its value is 3 mice.

**Q.** Which results are given for C[C@H](NC(=O)C(C)(C)Oc1ccc(C(=O)c2ccc(Cl)cc2)cc1)C(=O)N[C@@H](CCC(=O)O)C(=O)O [FFP, (S)-2-((S)-2-(2-(4-(4-chlorobenzoyl)phenoxy)-2-methylpropanamido)propanamido)pentanedioic acid]?
**A.** blast formation ([2]; 100 μM, last 2 days of culture, FIG. 9): reduced blast formation; fatty acid uptake ([1]; 10 or 100 μM, last 2 days of culture): more pronounced; oxygen consumption rates (OXPHOS) [3]: increased
